Read-outs that look alike come from different tables or passages of the source.
Tests used:
[1] = set-up: method as in PMID 34452431; settings: cited from earlier work
HIV‐1 [2] = tested on: HIV‐1; set-up: method as in ref 17 = [17]; 17 Molina JM , Yazdanpanah Y , Afani Saud A , et al. MK‐8591 at doses of 0.25 to 2.25 mg QD, in combination with doravirine establishes and maintains viral suppression through 48 weeks in treatment‐na; settings: islatravir in combination with doravirine, treatment-naive adults with HIV-1, phase 2b; cited from earlier work
[3] = Plasma pharmacokinetics in phase 1, open-label, fixed-sequence, 2-period drug interaction trial (MK-8591-005); assay type: in vivo, human
Procedure: (§1) This was a phase 1, open‐label, fixed‐sequence, 2‐period trial in adults without HIV (protocol MK‐8591‐005). In period 1, participants received a single oral dose of 20 mg islatravir. In period 2, participants received multiple oral doses of 50 mg dolutegravir and 300 mg TDF once daily for 11 consecutive days (days 1‐11), with a single oral dose of 20 mg islatravir coadministered on day 8. There was a washout period of ≥7 days between islatravir dosing in period 1 and the first dose of dolutegravir and TDF in period 2 (Figure 1).
Blood samples for islatravir plasma analysis were collected before dosing and at selected time points over 96 hours following administration of islatravir on day 1 of period 1 and day 8 of period 2. In period 2, samples taken at 24, 48, and 72 hours for islatravir plasma analysis were collected before dose administration of dolutegravir and TDF. Blood samples for plasma analysis of dolutegravir and tenofovir were collected before dosing on days 1, 7, and 8 of period 2 and at selected time points over 24 hours after dosing on days 7 and 8 of period 2. The 24 hour samples for dolutegravir and tenofovir analysis for days 7 and 8 were collected before dosing of dolutegravir and TDF.
Plasma concentrations of islatravir, dolutegravir, and tenofovir were determined by inVentiv Health Clinique (Québec City, Québec, Canada) using validated high‐performance liquid chromatography coupled to tandem mass spectrometry methods.
Islatravir (m/z 294.000/154.000) was extracted using an automated protein precipitation method using [^13C,^15N3]‐ISL as internal standard (m/z 297.800/158.000). The extracted samples were assessed on a system equipped with a X Select HSS T3 C18, 50×2.1 mm, 2.5 μm column with water/acetonitrile with formic acid mobile phase. […] The lower limit of quantitation for islatravir was 0.10 ng/mL, with an analytical range of 0.10 to 100.00 ng/mL.
Dolutegravir (m/z 420.200/277.200) was extracted using an automated protein precipitation method using [C^13‐d5]‐dolutegravir as the internal standard (m/z 426.300/277.300). The extracted samples were assessed on a system equipped with an ACE 3 C18, 30 × 4.6 mm, 3 μm column (Avantor, Radnor, Pennsylvania) with water/methanol with ammonium formate and formic acid mobile phase. […] The lower limit of quantitation for dolutegravir was 10.00 ng/mL, with an analytical range of 10.00 to 10 000.00 ng/mL.
Tenofovir (m/z 288.200/176.200) was extracted using an automated solid phase extraction using tenofovir‐d6 as internal standard (m/z 294.100/182.300). The extracted samples were assessed on a system equipped with an Atlantis dC18, 75 × 4.6 mm, 3 μm column (Waters Corp., Milford, Massachusetts) with water/acetonitrile with ammonium formate and formic acid mobile phase. […] The lower limit of quantitation for tenofovir was 0.50 ng/mL, with an analytical range of 0.50 to 500.00 ng/mL.
Plasma islatravir, dolutegravir, and tenofovir pharmacokinetics were summarized descriptively. Pharmacokinetic parameter values were calculated using the software Phoenix WinNonlin version 6.3 (Certara, Princeton, New Jersey). Cmax, C24, and tmax values were obtained directly from the observed plasma concentration–time data.

CYP2C19 = tested on: CYP2C19; set-up: method as in PMID 34452431; settings: at concentrations up to 100 μM; cited from earlier work
HIV‐1 [4] = tested on: HIV‐1; set-up: method as in PMID 31911147; settings: single oral dose as low as 0.5 mg, treatment-naive adults with HIV-1; cited from earlier work
CYP2C8 = tested on: CYP2C8; set-up: method as in PMID 34452431; settings: at concentrations up to 100 μM; cited from earlier work
[5] = tested on: uridine diphosphate glucuronosyltransferase 1A1; set-up: method as in PMID 34452431; settings: at concentrations up to 100 μM; cited from earlier work
CYP2C9 = tested on: CYP2C9; set-up: method as in PMID 34452431; settings: at concentrations up to 100 μM; cited from earlier work
[6] = Safety and tolerability in the phase 1 trial (adverse event reports, laboratory tests, ECG, vital signs); assay type: in vivo, human; settings: for participants reporting AEs considered drug-related: of 12 participants; for tolerability: adults without HIV, N = 12
Procedure: as §1
Safety and tolerability were monitored by repeated clinical and laboratory evaluations for the duration of the trial. Safety evaluations included adverse event (AE) reports, laboratory tests, 12‐lead electrocardiograms, and vital signs.
Incidence of adverse experiences was descriptively summarized.

[7] = tested on: drug transporters, pumps, transfer proteins, extrusion proteins, or resistance proteins; settings: cited from earlier work
[8] = set-up: method as in ref 14, 15 = [14]; 14 Rudd D , Cao Y , Vaddady P , et al. Modeling‐supported islatravir dose selection for phase 3 . Poster presented at Conference on Retroviruses and Opportunistic Infections (CROI); March 8–10 , 2020 || [15]; 15 Matthews RP , Rudd JD , Levine V , et al. Multiple daily doses of MK‐8591 as low as 0.25 mg are expected to suppress HIV . Oral presentation at Conference on Retroviruses and Opportunistic Infectio; settings: single oral doses of islatravir, adults without HIV; cited from earlier work
CYP2B6 = tested on: CYP2B6; set-up: method as in PMID 34452431; settings: at concentrations up to 100 μM; cited from earlier work
CYP3A4 = tested on: CYP3A4; set-up: method as in PMID 34452431; settings: up to 200 μM; cited from earlier work
CYP2D6 = tested on: CYP2D6; set-up: method as in PMID 34452431; settings: at concentrations up to 100 μM; cited from earlier work

SMILES: C#C[C@]1(CO)O[C@@H](n2cnc3c(N)nc(F)nc32)C[C@@H]1O [Islatravir, 4′‐Ethynyl‐2‐fluoro‐2′‐deoxyadenosine]
- plasma protein binding [1]: low
- duration of maintained virologic suppression (HIV‐1 [2]): up to 48 weeks
- increase of islatravir AUC0‐inf on coadministration ([3]; coadministration with steady-state dolutegravir and TDF compared with islatravir administered alone): 28%
- half-life ([3]; human, oral, plasma islatravir, single 20 mg islatravir on day 8 with 50 mg dolutegravir + 300 mg TDF once daily, period 2, N = 12, read-out: Apparent terminal t1/2, geometric mean (geometric CV %) (converted)): 55.9 h
- AUC ([3]; human, plasma, oral, plasma islatravir, single 20 mg islatravir on day 8 with 50 mg dolutegravir + 300 mg TDF once daily days 1-11, period 2, N = 12, read-out: AUC0‐inf, AM (SD)): 2.53 µM·h
- AUC ([3]; human, plasma, oral, plasma islatravir, single 20 mg islatravir on day 8 with 50 mg dolutegravir + 300 mg TDF once daily days 1-11, period 2, N = 12, read-out: AUC0‐inf, GM (95%CI)): 2.51 µM·h
- Cmax ([3]; human, plasma, oral, plasma islatravir, single 20 mg islatravir on day 8 with 50 mg dolutegravir + 300 mg TDF once daily days 1-11, period 2, N = 12, read-out: Cmax, AM (SD)): 522 nM
- Cmax ([3]; human, plasma, oral, plasma islatravir, single 20 mg islatravir on day 8 with 50 mg dolutegravir + 300 mg TDF once daily days 1-11, period 2, N = 12, read-out: Cmax, GM (95%CI)): 510 nM
- half-life ([3]; human, plasma, oral, plasma islatravir, single 20 mg islatravir on day 8 with 50 mg dolutegravir + 300 mg TDF once daily, period 2, N = 12, read-out: Apparent terminal t1/2, AM (SD) (converted)): 56.2 h
- AUC ([3]; human, plasma, po, 20 mg, plasma islatravir, islatravir alone, single oral 20 mg, day 1 period 1, N = 12, read-out: AUC0‐inf, AM (SD)): 2 µM·h
- AUC ([3]; human, plasma, po, 20 mg, plasma islatravir, islatravir alone, single oral 20 mg, day 1 period 1, N = 12, read-out: AUC0‐inf, GM (95%CI)): 1.97 µM·h
- half-life ([3]; human, plasma, po, 20 mg, plasma islatravir, islatravir alone, single oral 20 mg, day 1 period 1, N = 12, read-out: Apparent terminal t1/2, AM (SD) (converted)): 57.2 h
- half-life ([3]; human, plasma, po, 20 mg, plasma islatravir, islatravir alone, single oral 20 mg, day 1 period 1, N = 12, read-out: Apparent terminal t1/2, geometric mean (geometric CV %) (converted)): 56.6 h
- Cmax ([3]; human, plasma, po, 20 mg, plasma islatravir, islatravir alone, single oral 20 mg, day 1 period 1, N = 12, read-out: Cmax, AM (SD)): 495 nM
- Cmax ([3]; human, plasma, po, 20 mg, plasma islatravir, islatravir alone, single oral 20 mg, day 1 period 1, N = 12, read-out: Cmax, GM (95%CI)): 479 nM
- Tmax ([3]; human, plasma, po, 20 mg, plasma islatravir, islatravir alone, single oral 20 mg, day 1 period 1, N = 12, read-out: tmax, median (min‐max)): 0.75 h
- tmax, median (min‐max) ([3]; plasma islatravir, single 20 mg islatravir on day 8 with 50 mg dolutegravir + 300 mg TDF once daily, period 2, N = 12): 1.00 (0.50‐2.01) h
- inhibitory effect on CYP2C19 (CYP2C19): no inhibitory effect
- duration of effective viral suppression (HIV‐1 [4]): up to 7 days
- inhibitory effect on CYP2C8 (CYP2C8): no inhibitory effect
- inhibitory effects on uridine diphosphate glucuronosyltransferase 1A1 [5]: No inhibitory effects
- inhibitory effect on CYP2C9 (CYP2C9): no inhibitory effect
- participants reporting AEs considered drug-related ([6]; after administration of islatravir): 3 participants
- participants reporting AEs considered drug-related ([6]; after coadministration of all 3 therapies (islatravir, dolutegravir, TDF)): 1 participant
- tolerability ([6]; islatravir alone, single oral 20 mg): generally well tolerated
- tolerability ([6]; islatravir in combination with dolutegravir and TDF): generally well tolerated
- interference with drug transporters, pumps, transfer proteins, extrusion proteins, or resistance proteins [7]: not found to interfere
- time to peak plasma concentrations [8]: ≈ 0.5 hours
- inhibitory effect on CYP2B6 (CYP2B6): no inhibitory effect
- inhibitory effect on CYP3A4 (CYP3A4): no inhibitory effect
- inhibitory effect on CYP2D6 (CYP2D6): no inhibitory effect
